This note sets out measurements from publication PMC6197744, “Triazolo[4,5-d]pyrimidines as Validated General Control Nonderepressible 2 (GCN2) Protein Kinase Inhibitors Reduce Growth of Leukemia Cells” (Computational and Structural Biotechnology Journal, 2018).

Each structure is given as a SMILES string.

In one experiment the target is T1, human GCN2 (Homo sapiens, UniProt Q9P2K8).
T1 construct: purchased Reaction Biology Corporation (Malvern, PA)
Briefly: radiometric HotSpot kinase assay. Conditions: ATP at the ATP Km of GCN2; means of two independent experiments. The class given is biochemical. As to the method: (§1) Compounds 1–9 were screened in a radiometric […] kinase assay against human GCN2 and other kinases involved in the UPR and ISR pathways (Table 1). […] The most soluble of the potent tool compounds (1 and 2) were selected for in vitro cell-based assays where the phosphorylation of eIF2α (p-eIF2α) was used as a readout for GCN2 inhibition.
In vitro compound profiling for recombinant GCN2, PERK, HRI, PKR, or IRE1 kinases were performed at Reaction Biology Corporation (Malvern, PA) using the HotSpot kinase assay. Briefly, all compounds provided for testing were dissolved in 10 mM DMSO stock solutions. Serial dilutions were conducted by epMotion 5070 in DMSO. Specific kinase/substrate mixtures and required cofactors were prepared in reaction buffer (20 mM Hepes (pH 7.5), 10 mM MgCl2, 1 mM EGTA, 0.02% Brij35, 0.02 mg/ml BSA, 0.1 mM Na3VO4, 2 mM DTT, 1% DMSO). Compounds were added to the kinase reaction mixture by Acoustic technology (Echo550; nanoliter range) and incubated for 20 min at room temperature. The kinase reaction was initiated by adding ^33P ATP to a final concentration of 10 μM for single point kinase activity reading or to the ATP Km of GCN2 for IC50 readings. The reaction was incubated or 2 h at room temperature and kinase activity was detected by filter-binding method. IC50 values and curves were generated with GraphPad Prism 7 (GraphPad software).

In experiment [1] the target is standard panel of 50 protein kinases. Nature of the experiment: Broad kinase panel screen, whole panel. Conditions: 0.5 μM. The class given is binding. As for the experimental part: as §1
(§2) Compound 2 was screened against a standard panel of 50 protein kinases by Luceome Biotechnologies (Tucson, AZ). In brief, Compound 2 was dissolved and diluted in DMSO to a concentration of 12.5 μM from a 10 mM stock solution. As a control, compound 2 was evaluated for false positive against split-luciferase. For kinase assays, each C-terminal half of firefly luciferase linked kinase (Cfluc-Kinase) was translated along with the coiled coil Fos attached to the N-terminal fragment (Nfluc) (Fos-Nfluc) using rabbit reticulocyte lysate at 30 °C for 90 min. 24 µL aliquot of this lysate containing 1 µL of either DMSO or Compound 2 (at a final concentration 0.5 μM) was incubated for 30 minutes at room temperature followed by 1 hour incubation in the presence of a kinase specific probe. Finally, 80 µL of luciferin assay reagent was added and luminescence was immediately measured on a luminometer. Compound 2 was screened in duplicate against each kinase.
(§3) The % Inhibition and % Activity Remaining was calculated using the following equations: […]

For a further experiment, the target named is T2, AAK1 (Homo sapiens, UniProt Q2M2I8).
T2 construct: purchased Luceome Biotechnologies
Briefly: Broad kinase panel screen (split-luciferase). The class given is binding. The following applies: AAK1, 0.5 uM. As to the method: as §2, §3

The next experiment addresses T3, ACVR2A/ACVR2 (Homo sapiens, UniProt P27037).
T3 construct: purchased Luceome Biotechnologies
Briefly: Broad kinase panel screen (split-luciferase). The class given is binding. The following applies: ACVR2A/ACVR2, 0.5 uM. As to the method:
as §2, §3

For the next experiment, the target named is T4, AURKB (Homo sapiens, UniProt Q96GD4).
T4 construct: purchased Luceome Biotechnologies
Briefly: Broad kinase panel screen (split-luciferase). The class given is binding. As for the experimental part:
as §2, §3

A further experiment concerns the target T5, CAMK1D (Homo sapiens, UniProt Q8IU85).
T5 construct: purchased Luceome Biotechnologies
Nature of the experiment: Broad kinase panel screen (split-luciferase). The class given is binding. As to the method:
as §2, §3

Another experiment deals with T6, CDK5 (Homo sapiens, UniProt Q00535).
T6 construct: purchased Luceome Biotechnologies
Nature of the experiment: Broad kinase panel screen (split-luciferase). The class given is binding. The following applies: CDK5, 0.5 uM. As for the experimental part: as §2, §3

Another experiment concerns the target T7, CLK2 (Homo sapiens, UniProt P49760).
T7 construct: purchased Luceome Biotechnologies
Briefly: Broad kinase panel screen (split-luciferase). The class given is binding. The following applies: CLK2, 0.5 uM. As for the experimental part:
as §2, §3

A further experiment has as its target T8, EPHA5 (Homo sapiens, UniProt P54756).
T8 construct: purchased Luceome Biotechnologies
Nature of the experiment: Broad kinase panel screen (split-luciferase). The class given is binding. Conditions: EPHA5, 0.5 uM. As for the experimental part: as §2, §3

The target in another experiment is T9, HCK (Homo sapiens, UniProt P08631).
T9 construct: purchased Luceome Biotechnologies
Briefly: Broad kinase panel screen (split-luciferase). The class given is binding. As to the method:
as §2, §3

For a further experiment, the target named is T10, KIT (Homo sapiens, UniProt P10721).
T10 construct: purchased Luceome Biotechnologies
Nature of the experiment: Broad kinase panel screen (split-luciferase). The class given is binding. As to the method: as §2, §3

Another experiment deals with T11, MAP3K11/MLK3 (Homo sapiens, UniProt Q16584).
T11 construct: purchased Luceome Biotechnologies
Briefly: Broad kinase panel screen (split-luciferase). The class given is binding. The following applies: MAP3K11/MLK3, 0.5 uM. As for the experimental part:
as §2, §3

In a further experiment the target is T12, MST2 (Homo sapiens, UniProt Q13188).
T12 construct: purchased Luceome Biotechnologies
Briefly: Broad kinase panel screen (split-luciferase). The class given is binding. Conditions: MST2, 0.5 uM. As for the experimental part: as §2, §3

The target of a further experiment is T13, PTK2B/PYK2 (Homo sapiens, UniProt Q14289).
T13 construct: purchased Luceome Biotechnologies
Nature of the experiment: Broad kinase panel screen (split-luciferase). The class given is binding. Conditions: PTK2B/PYK2, 0.5 uM. As to the method:
as §2, §3

The target in a further experiment is T14, RSK2/RPS6KA3 (Homo sapiens, UniProt P51812).
T14 construct: purchased Luceome Biotechnologies
Briefly: Broad kinase panel screen (split-luciferase). The class given is binding. Conditions: RSK2/RPS6KA3, 0.5 uM. As for the experimental part: as §2, §3

A further experiment addresses T15, SLK (Homo sapiens, UniProt Q9H2G2).
T15 construct: purchased Luceome Biotechnologies
Nature of the experiment: Broad kinase panel screen (split-luciferase). The class given is binding. As to the method: as §2, §3

The target in a further experiment is T16, YANK2 (Homo sapiens, UniProt Q9NY57).
T16 construct: purchased Luceome Biotechnologies
Briefly: Broad kinase panel screen (split-luciferase). The class given is binding. The following applies: YANK2, 0.5 uM. As for the experimental part:
as §2, §3

T16 sequence (Q9NY57 whole entry): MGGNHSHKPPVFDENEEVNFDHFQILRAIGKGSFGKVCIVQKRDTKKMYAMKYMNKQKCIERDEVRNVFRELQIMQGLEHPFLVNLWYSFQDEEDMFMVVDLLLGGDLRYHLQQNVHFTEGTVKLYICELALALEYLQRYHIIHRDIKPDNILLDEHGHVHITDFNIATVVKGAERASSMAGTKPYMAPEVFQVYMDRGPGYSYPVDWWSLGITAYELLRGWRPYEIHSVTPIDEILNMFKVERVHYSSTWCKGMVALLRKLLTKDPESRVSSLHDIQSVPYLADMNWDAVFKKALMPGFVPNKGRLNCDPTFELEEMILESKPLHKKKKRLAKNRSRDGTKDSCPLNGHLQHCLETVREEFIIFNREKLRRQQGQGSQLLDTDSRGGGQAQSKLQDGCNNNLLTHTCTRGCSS
T2 sequence (Q2M2I8 whole entry): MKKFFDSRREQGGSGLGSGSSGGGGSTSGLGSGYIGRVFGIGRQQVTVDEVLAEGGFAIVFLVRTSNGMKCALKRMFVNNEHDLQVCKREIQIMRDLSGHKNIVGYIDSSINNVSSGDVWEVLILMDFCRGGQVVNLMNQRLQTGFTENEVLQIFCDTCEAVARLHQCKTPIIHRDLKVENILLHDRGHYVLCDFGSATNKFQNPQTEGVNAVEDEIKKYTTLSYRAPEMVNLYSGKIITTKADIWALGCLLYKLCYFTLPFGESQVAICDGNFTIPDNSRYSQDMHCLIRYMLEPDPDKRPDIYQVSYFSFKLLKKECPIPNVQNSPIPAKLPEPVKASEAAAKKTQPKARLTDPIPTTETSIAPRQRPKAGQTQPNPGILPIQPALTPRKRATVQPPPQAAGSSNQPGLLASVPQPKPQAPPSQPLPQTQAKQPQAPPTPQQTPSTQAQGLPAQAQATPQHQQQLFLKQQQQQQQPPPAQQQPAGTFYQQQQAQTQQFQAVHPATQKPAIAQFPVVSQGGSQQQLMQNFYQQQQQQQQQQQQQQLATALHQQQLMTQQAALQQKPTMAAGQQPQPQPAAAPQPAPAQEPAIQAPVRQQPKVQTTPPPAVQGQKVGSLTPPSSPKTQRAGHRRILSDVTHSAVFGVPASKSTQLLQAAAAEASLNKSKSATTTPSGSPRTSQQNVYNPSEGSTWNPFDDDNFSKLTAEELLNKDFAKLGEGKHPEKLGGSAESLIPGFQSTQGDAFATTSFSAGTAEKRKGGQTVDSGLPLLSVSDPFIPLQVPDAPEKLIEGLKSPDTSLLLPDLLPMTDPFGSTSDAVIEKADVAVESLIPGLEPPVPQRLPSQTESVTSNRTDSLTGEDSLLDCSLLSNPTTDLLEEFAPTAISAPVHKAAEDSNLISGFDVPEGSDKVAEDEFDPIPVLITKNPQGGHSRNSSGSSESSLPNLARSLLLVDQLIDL
T5 sequence (Q8IU85 whole entry): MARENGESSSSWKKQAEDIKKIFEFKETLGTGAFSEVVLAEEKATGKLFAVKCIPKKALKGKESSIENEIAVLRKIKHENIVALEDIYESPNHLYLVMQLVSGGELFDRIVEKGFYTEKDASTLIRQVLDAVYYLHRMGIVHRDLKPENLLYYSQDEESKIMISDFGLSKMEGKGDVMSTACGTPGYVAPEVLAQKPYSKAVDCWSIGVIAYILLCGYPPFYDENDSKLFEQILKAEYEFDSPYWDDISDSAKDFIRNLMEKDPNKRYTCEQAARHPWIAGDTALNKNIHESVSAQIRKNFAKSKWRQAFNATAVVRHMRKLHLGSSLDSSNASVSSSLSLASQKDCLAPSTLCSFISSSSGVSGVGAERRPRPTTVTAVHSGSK
T1 sequence (Q9P2K8 whole entry): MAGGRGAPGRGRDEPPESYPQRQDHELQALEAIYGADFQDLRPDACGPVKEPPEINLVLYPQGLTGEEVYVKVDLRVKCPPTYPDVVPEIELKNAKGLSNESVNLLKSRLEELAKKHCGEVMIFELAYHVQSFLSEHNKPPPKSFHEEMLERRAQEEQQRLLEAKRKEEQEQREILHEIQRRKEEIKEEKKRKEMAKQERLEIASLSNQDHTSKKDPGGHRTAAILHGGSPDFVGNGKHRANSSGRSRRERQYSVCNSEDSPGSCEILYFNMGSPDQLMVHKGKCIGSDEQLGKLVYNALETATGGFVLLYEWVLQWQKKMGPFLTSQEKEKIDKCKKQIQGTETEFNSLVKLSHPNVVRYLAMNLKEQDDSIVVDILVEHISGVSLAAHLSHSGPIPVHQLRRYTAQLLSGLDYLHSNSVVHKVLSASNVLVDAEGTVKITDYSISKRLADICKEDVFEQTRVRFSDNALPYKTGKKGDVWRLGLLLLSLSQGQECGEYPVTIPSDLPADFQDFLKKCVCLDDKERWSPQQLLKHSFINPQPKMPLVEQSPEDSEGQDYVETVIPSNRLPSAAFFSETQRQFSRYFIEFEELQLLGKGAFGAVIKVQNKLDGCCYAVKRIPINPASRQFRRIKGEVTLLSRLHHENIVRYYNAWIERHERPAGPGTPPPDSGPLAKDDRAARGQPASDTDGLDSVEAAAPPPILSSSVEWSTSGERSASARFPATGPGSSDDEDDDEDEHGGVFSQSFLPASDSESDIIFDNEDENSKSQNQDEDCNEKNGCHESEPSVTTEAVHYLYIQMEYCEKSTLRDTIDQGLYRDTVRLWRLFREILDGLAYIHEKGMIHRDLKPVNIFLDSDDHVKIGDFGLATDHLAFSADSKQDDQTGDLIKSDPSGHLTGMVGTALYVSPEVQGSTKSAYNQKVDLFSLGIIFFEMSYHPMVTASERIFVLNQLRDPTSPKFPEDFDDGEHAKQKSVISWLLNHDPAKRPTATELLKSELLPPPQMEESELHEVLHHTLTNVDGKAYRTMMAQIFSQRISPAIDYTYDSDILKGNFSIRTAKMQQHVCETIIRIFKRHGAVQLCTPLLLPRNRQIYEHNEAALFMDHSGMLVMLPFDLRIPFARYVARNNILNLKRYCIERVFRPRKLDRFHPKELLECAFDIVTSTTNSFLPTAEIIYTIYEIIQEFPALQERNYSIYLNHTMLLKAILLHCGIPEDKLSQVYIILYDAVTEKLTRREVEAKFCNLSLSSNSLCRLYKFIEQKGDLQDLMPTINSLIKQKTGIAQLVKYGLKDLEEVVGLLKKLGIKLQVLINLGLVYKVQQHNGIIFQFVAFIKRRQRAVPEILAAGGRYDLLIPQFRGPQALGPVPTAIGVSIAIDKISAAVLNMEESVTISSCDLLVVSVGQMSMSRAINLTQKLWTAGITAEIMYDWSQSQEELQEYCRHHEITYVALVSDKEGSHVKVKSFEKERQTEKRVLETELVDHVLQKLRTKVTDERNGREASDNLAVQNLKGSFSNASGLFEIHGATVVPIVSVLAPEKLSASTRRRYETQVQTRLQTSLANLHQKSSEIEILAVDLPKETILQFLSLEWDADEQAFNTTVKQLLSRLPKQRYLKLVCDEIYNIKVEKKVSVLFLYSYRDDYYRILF
T11 sequence (Q16584 whole entry): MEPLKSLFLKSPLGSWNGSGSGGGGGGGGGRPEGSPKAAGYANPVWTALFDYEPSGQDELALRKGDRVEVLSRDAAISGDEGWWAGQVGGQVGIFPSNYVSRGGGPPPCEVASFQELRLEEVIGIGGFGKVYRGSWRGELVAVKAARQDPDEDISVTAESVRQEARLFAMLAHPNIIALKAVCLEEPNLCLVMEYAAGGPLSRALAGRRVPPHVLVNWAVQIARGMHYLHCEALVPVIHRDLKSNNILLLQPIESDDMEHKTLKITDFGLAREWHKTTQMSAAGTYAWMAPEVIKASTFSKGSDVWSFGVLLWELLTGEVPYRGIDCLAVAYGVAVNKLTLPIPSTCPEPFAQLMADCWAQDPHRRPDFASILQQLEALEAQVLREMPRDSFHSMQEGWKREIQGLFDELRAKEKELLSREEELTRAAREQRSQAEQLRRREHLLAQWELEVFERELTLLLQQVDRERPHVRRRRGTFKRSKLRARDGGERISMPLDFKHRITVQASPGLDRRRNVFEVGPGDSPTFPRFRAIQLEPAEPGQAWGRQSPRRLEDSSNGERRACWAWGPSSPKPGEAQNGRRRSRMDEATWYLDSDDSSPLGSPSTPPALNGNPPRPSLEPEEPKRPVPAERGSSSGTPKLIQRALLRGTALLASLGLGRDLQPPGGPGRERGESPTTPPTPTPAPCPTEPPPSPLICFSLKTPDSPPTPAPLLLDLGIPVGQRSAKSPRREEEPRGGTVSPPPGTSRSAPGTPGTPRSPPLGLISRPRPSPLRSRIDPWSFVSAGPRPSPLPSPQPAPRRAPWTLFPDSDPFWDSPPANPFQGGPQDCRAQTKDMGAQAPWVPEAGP
T3 sequence (P27037 20-513): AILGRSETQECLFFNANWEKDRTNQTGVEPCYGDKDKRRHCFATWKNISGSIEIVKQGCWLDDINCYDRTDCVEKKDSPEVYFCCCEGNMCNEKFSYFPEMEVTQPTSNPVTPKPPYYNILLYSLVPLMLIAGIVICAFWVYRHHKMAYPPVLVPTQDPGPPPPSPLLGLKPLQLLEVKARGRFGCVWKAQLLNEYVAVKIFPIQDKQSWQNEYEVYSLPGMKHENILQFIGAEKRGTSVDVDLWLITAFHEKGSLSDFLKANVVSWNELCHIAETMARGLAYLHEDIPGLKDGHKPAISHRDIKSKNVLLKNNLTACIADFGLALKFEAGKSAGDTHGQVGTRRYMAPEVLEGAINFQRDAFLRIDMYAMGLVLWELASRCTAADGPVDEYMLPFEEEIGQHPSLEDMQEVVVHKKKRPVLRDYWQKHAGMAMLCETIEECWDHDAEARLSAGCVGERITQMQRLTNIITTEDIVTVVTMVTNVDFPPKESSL
T6 sequence (Q00535 whole entry): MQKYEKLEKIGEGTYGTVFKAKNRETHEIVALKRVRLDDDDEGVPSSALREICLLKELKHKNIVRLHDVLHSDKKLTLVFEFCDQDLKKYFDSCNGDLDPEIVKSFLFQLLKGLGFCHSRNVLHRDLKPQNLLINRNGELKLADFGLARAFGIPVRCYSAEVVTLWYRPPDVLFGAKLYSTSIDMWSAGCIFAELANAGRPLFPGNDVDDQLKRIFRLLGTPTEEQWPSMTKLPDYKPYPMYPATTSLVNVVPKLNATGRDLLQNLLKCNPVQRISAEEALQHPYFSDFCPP

On to `CCOc1ccc(-n2nnc3cnc(Nc4cnn(CC)c4)nc32)cc1` [Compound 2, 3-(4-Ethoxyphenyl)-N-(1-ethyl-1H-pyrazol-4-yl)-3H-[1,2,3]triazolo[4,5-d]pyrimidin-5-amine], for which the concentration for half-maximal inhibition (IC50) at human GCN2 was determined as 18.6 nM. For the same molecule, in experiment [1], the “kinase inhibition in standard broad kinase panel (in words)” value is recorded as “no significant kinase inhibition”. For the same molecule, the remaining activity at 0.5 µM stood at 73.5% at AAK1; 100% on ACVR2A/ACVR2; 94.7% at AURKB; 92.9% at CAMK1D; 94.4% at CDK5; 93% at CLK2. The remaining activity at 0.5 µM amounted to 97.8% at EPHA5; 96% at HCK; 88.8% on KIT; 100% at MAP3K11/MLK3; 100% on MST2; 96% at PTK2B/PYK2. Moreover, the remaining activity at 0.5 µM worked out at 89.9% on RSK2/RPS6KA3, 98.7% at SLK and 100% on YANK2.
